In patent US7807678B2, “Peptidomimetics of biologically active metallopeptides” (Palatin Technologies, Inc., priority 2001, dated 2010):
Where two headings read alike, the source gives them in different places. Non-standard residues stand in square brackets, D forms with d. Residues, ends and D or L forms follow the SMILES beside them. *: point of attachment. Hyp = O=C(O)[CH]1C[CH](O)CN1; Nle = CCCC[CH](N)C(=O)O; NH(CH2)3NH2 = NCCCN*; Bn = c1ccc(C*)cc1

Legend:
MC3-R [1] = molecular target: T1, MC3-R (Homo sapiens, UniProt P41968); assay: Ki determination by the method of Example 4, MC3-R; format: binding; set-up: expressed in transfected cells; host or cells: HEK-293
Method: (§1) The Ki (nM) of certain peptidomimetics were determined, as was the agonist/antagonist status with respect to MC4-R, Functional evaluation of compounds at melanocortin receptors was performed by measuring the accumulation of intracellular cAMP in HEK-293 cells expressing MC3-R, MC4-R or MC5-R, and in B-16 mouse melanoma cells (containing MC1-R). Antagonistic activity was determined by measuring the inhibition of α-MSH-induced cAMP levels following exposure to the compounds. Cells, suspended in Earle's Balanced Salt Solution containing 10 mM HEPES, pH 7.5, 5 mM MgCl2, 1 mM glutamine, 0.1% albumin and 0.6 mM 3-isobutyl-1-methyl-xanthine, a phosphodiesterase inhibitor, were plated in 96 well plates at a density of 0.5×10^5 cells per well. Cells were incubated with the test compounds in the presence or absence of α-MSH for 1 hour at 37° C. cAMP levels were measured by EIA (Amersham) in the cell lysates. Data analysis and EC50 values were determined using nonlinear regression analysis with Prism Graph-Pad software.

MC4-R [2] = molecular target: T2, MC4-R (Homo sapiens, UniProt P32245); assay: Ki determination by the method of Example 4, MC4-R; format: binding; set-up: expressed in transfected cells; host or cells: HEK-293
Method: as §1

MC5-R [3] = molecular target: T3, MC5-R (Homo sapiens, UniProt P33032); assay: Ki determination by the method of Example 4, MC5-R; format: binding; set-up: expressed in transfected cells; host or cells: HEK-293
Method: as §1

[4] = molecular target: T4, MC1-R (B-16 mouse melanoma cells) (Mus musculus, UniProt Q01727); assay: Competitive inhibition binding assay, 125I-NDP-α-MSH, MC1-R
T4 construct: B-16 mouse melanoma cells (containing MC1-R); endogenous in cells; host or cells: B-16 mouse melanoma cells
Method in brief: (§2)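 Membranes from hMC3-R, hMC4-R or hMC5-R cells, or B-16 mouse melanoma cells (MC1-R), were incubated 90 min at room temperature with 0.4 nM 125I-NDP-α-MSH in HEPES pH 7.2 with Mg2+/Ca2+/K+, and test compound generally at 1 μM. Filter-bound radioactivity was gamma counted. Specific binding was defined with 1 μM α-MSH; triplicate means.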

[5] = molecular target: T4, MC1-R (B-16 mouse melanoma cells); assay: Ki determination by the method of Example 4, MC1-R; format: binding
Method: as §1

MC3-R [6] = molecular target: T1, MC3-R; assay: Competitive inhibition binding assay, 125I-NDP-α-MSH, MC3-R; set-up: expressed in transfected cells
Method in brief: as §2

MC4-R [7] = molecular target: T2, MC4-R; assay: Competitive inhibition binding assay, 125I-NDP-α-MSH, MC4-R; set-up: expressed in transfected cells
Method in brief: as §2

MC5-R [8] = molecular target: T3, MC5-R; assay: Competitive inhibition binding assay, 125I-NDP-α-MSH, MC5-R; set-up: expressed in transfected cells
Method in brief: as §2

[9] = molecular target: T4, MC1-R (B-16 mouse melanoma cells); assay: cAMP assay for agonist/antagonist status, MC1-R; format: cell-based
Method: as §1

MC4-R (HEK-293 cells) = molecular target: T5, MC4-R (HEK-293 cells) (Homo sapiens, UniProt P32245); assay: cAMP assay for agonist/antagonist status, MC4-R; format: cell-based
T5 construct: expressed in transfected cells; host or cells: HEK-293
Method: as §1

MC5-R (HEK-293 cells) = molecular target: T6, MC5-R (HEK-293 cells) (Homo sapiens, UniProt P33032); assay: cAMP assay for agonist/antagonist status, MC5-R; format: cell-based
T6 construct: expressed in transfected cells; host or cells: HEK-293
Method: as §1

[10] = bound in μM, read-out: Ki MC3-R
[11] = bound in μM, read-out: Ki MC4-R
[12] = bound in μM, read-out: Ki MC5-R
[13] = bound in μM, read-out: Ki MC1-R
[14] = 1 μM compound, inhibition of 125I-NDP-α-MSH binding, mean of triplicates, results less than 0% reported as 0%

T1 sequence (P41968 whole entry): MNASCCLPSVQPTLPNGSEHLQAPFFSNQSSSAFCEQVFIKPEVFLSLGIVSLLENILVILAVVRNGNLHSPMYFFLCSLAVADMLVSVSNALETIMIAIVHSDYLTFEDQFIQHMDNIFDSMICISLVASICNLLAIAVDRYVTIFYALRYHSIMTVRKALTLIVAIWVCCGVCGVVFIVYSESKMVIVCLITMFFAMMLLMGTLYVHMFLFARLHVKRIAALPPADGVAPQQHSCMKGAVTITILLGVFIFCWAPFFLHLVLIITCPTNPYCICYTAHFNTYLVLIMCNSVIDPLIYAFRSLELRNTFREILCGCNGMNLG
T4 sequence (Q01727 whole entry): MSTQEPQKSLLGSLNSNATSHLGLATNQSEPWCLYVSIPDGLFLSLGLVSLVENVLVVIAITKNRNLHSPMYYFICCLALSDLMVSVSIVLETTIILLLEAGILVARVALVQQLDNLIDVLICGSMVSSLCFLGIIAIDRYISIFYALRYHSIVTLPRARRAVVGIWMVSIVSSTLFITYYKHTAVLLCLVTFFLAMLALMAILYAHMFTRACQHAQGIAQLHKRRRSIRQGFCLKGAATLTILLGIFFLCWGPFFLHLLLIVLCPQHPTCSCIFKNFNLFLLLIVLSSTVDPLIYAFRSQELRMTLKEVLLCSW
T3 sequence (P33032 whole entry): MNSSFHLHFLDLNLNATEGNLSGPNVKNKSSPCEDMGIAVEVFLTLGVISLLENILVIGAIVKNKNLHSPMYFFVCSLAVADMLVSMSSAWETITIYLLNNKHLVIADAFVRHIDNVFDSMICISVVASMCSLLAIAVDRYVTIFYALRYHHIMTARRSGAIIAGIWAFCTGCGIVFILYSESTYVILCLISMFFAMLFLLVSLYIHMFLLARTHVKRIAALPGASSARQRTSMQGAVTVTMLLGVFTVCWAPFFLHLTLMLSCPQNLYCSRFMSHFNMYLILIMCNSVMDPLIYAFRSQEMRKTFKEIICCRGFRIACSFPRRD
T2 sequence (P32245 whole entry): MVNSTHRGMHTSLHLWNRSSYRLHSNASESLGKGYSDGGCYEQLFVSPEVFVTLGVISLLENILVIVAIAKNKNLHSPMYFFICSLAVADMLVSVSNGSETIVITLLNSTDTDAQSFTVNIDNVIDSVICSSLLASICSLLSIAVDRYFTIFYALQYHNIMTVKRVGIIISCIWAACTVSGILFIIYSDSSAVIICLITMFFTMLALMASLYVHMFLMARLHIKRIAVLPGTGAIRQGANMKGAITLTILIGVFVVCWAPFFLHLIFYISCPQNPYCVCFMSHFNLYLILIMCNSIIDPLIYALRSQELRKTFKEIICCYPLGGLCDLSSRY
T6 sequence (P33032 whole entry): as the sequence (P33032 whole entry) above
T5 sequence (P32245 whole entry): as the sequence (P32245 whole entry) above

Row | Compound | Ki (MC3-R [1]; [10]) [µM] | Ki (MC4-R [2]; [11]) [µM] | Ki (MC5-R [3]; [12]) [µM] | inhibition at 1 µM (MC3-R [6]) [%] | inhibition at 1 µM (MC4-R [7]) [%] | inhibition at 1 µM (MC5-R [8]) [%] | Ki (MC4-R [2]; read-out: Ki (nM) MC4-R) [µM] | Ki (MC5-R [3]; read-out: Ki (nM) MC5-R) [µM] | Ki [5, 13] [nM] | other results
1 | CCCCC(N)C(=O)NC(C)C(=O)NC(Cc1cnc[nH]1)C(=O)NC(Cc1ccccc1)C(=O)N1CC(OCc2ccccc2)CC1C(=O)NCCCN (stereo not shown) [Example 134] (H-[Nle]AHF[Hyp](Bn)-{NH(CH2)3NH2}; configuration not given here) | > 1 | > 1 | > 1 |  |  |  |  |  |  | 
2 | N=C(N)NCCCC1C(=O)N(CCc2c[nH]c3ccccc23)CCN1C(=O)C(Cc1ccc(Cl)cc1)NC(=O)C1Cc2ccccc2CN1 (stereo not shown) [Example 14] |  |  |  | 88 | 99 | 89 | 0.002 | 0.052 |  | inhibition at 1 µM [4]: 96%; Ki ([5]; read-out: Ki (nM) MC1-R): 3 nM; Ki (MC3-R [1]; read-out: Ki (nM) MC3-R): 0.077 µM
3 | NCCCNC(=O)C1CC(OCc2ccccc2)CN1C(=O)C(Cc1ccccc1)NC(=O)C1Cc2ccccc2CN1 (stereo not shown) [Example 147] | > 1 | > 1 | > 1 |  |  |  |  |  | > 1000 | 
4 | CCCCCCC(=O)NC(COCc1ccccc1)C(=O)NC(Cc1ccc(Cl)cc1)C(=O)N1C(CCCCN)C(=O)N2C(COc3ccc4ccccc4c3)CCC21 (stereo not shown) [Example 81] |  |  |  |  |  |  |  | 0.134 |  | Ki (MC3-R [1]; read-out: Ki (nM) MC3-R): 0.209 µM
5 | N=C(N)NCCCC1C(=O)N(CCc2c[nH]c3ccccc23)CCN1C(=O)C(Cc1ccc(Cl)cc1)NC(=O)C(COCc1ccccc1)NC(=O)CCCCCCN (stereo not shown) [Example 17] |  |  |  | 97 | 99 | 94 | 0.002 | 0.032 |  | inhibition at 1 µM [4]: 96%; Ki ([5]; read-out: Ki (nM) MC1-R): 4 nM; Ki (MC3-R [1]; read-out: Ki (nM) MC3-R): 0.017 µM
6 | NCCCNC(=O)[C@@H]1C[C@@H](OCc2ccccc2)CN1C(=O)[C@@H](Cc1ccc(Cl)cc1)NC(=O)[C@H]1Cc2ccccc2CN1 [Example 146] | > 1 | > 1 | > 1 |  |  |  |  |  | > 1000 | 
7 | NC(COCc1ccccc1)C(=O)NC(Cc1ccc(Cl)cc1Cl)C(=O)N1CCN(CCc2ccc3ccccc3c2)C(=O)C1CCCNC1=NCCN1 (stereo not shown) [Example 48] | > 1 |  |  | 60 | 99 | 75 | 0.004 | 0.104 | > 1000 | inhibition at 1 µM [4]: 63%
8 | NCCCCC1C(=O)N2C(COc3ccc4ccccc4c3)CCC2N1C(=O)C(Cc1ccc(Cl)cc1)NC(=O)C1Cc2ccccc2CN1 (stereo not shown) [Example 80] | > 1 |  |  |  |  |  |  |  |  | 
9 | [2H]N[C@@H](Cc1cnc[nH]1)C(=O)N[C@@H](Cc1ccccc1)C(=O)N1C2CC[C@H](COc3ccc4ccccc4c3)N2C(=O)[C@@H]1CCCCN (stereo partly shown) [Example 180] | > 1 | > 1 | > 1 |  |  |  |  |  |  | Ki ([5]; read-out: Ki (nM) MC1-R): 8 nM; agonist/antagonist status as to MC1-R [9]: agonist; agonist/antagonist status as to MC1-R ([9]; listed as Compound 2): potent MCR-1 agonist
10 | N=C(N)NCCC[C@H]1C(=O)N2C(CC[C@@H]2COc2ccc3ccccc3c2)N1C(=O)[C@@H](Cc1ccc(Cl)cc1Cl)NC(=O)[C@@H]1CC[C@H](c2ccccc2)N1 (stereo partly shown) [Example 115] | > 1 |  |  | 43 | 97 | 86 | 0.012 | 0.099 | > 1000 | 
11 | NCCCC[C@H]1C(=O)N(CCc2ccc3ccccc3c2)CCN1C(=O)[C@@H](Cc1ccc(Cl)cc1Cl)NC(=O)c1cccc(Oc2ccccc2)c1 [Example 38] |  |  |  |  |  |  |  |  |  | Inhibition at 1 μM MC1-R [4, 14]: 3%; agonist/antagonist status as to MC1-R [9]: antagonist; agonist/antagonist status as to MC4-R (MC4-R (HEK-293 cells)): antagonist; agonist/antagonist status as to MC5-R (MC5-R (HEK-293 cells)): agonist; Inhibition at 1 μM MC3-R (MC3-R [6]; [14]): 21%; Inhibition at 1 μM MC4-R (MC4-R [7]; [14]): 97%; Inhibition at 1 μM MC5-R (MC5-R [8]; [14]): 61%
